Experimental data published in patent US11014895B2, “Heterocyclic urea compound, and drug composition and application thereof” (CHINA PHARMACEUTICAL UNIVERSITY, priority 2017, dated 2021).

What was measured:
[1] = target: IDO1 enzyme (Homo sapiens, UniProt P14902); experiment: Determination of biochemical activity of IDO1 enzyme (absorbance at 320 nm); details: room temperature, 3 hours
Protocol: (1) Method for Determining Biochemical Activity of IDO1 Enzyme
Firstly, 15 μl of buffer solution of sodium hydrogen phosphate (PH:7-8), 5 μl of reaction buffer solution containing a proper amount of IDO-1 enzyme and heterocyclic urea compound prepared by the invention were added into wells of a microplate, mixed evenly, and reacted at room temperature for 3 hours; then a light absorption value at 320 nm wavelength was detected by using Envision Multilabel Reader of PE company, an inhibition rate of the heterocyclic urea compound on the enzyme reaction was calculated according to an absorption ratio, and an IC50 value of the heterocyclic urea compound was calculated through analysis by GraphPad.

[2] = target: T1, IDO1 enzyme in the Hela cell (Homo sapiens, UniProt P14902); experiment: Cell activity: interferon γ-stimulated Hela cells, absorbance of supernatant at 480 nm; assay type: cell-based; details: interferon γ 100 ng/ml, 72 hours
T1 construct: endogenous in cells; host or cells: HeLa cells stimulated with interferon γ (100 ng/ml)
T1 sequence (P14902 whole entry): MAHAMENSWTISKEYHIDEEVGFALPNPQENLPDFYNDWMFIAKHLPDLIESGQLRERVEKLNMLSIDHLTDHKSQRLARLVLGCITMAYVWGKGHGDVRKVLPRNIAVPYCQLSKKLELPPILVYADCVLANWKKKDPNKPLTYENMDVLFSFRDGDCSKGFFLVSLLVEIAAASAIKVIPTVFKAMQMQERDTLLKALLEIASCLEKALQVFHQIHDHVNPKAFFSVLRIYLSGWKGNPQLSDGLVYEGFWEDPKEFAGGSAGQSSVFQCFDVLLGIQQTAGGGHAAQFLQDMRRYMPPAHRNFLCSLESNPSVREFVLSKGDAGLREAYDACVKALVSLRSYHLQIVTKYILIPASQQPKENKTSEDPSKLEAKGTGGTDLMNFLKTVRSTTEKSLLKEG
Protocol: (2) Method for Determining Cell Activity
Hela cells were cultured and passaged in a DMEM medium supplemented with antibiotics in a 37° C. CO2 incubator, inoculated into a 96-well plate for overnight culture, then 1 μl of heterocyclic urea compound with appropriate concentration was added to each well, and then 100 μl of interferon γ (final concentration was 100 ng/ml) was added. After the cells were continuously cultured for 72 hours, 70 μl of cell culture supernatant was added to a 96-well V-bottom plate, 5 μl of trichloroacetic acid (6.1 N) was added to each well, incubated at 50° C. for 30 min, then taken out and centrifuged at […] for 10 min. The above centrifuged supernatant was transferred to a 384-well microplate (20 μl/well), then 20 μl of 2% didimethylaminobenzaldehyde acetic acid solution was added to each well, shaken and mixed evenly, then photometric absorption was performed at 480 nm, and values were measured.

IDO1 enzyme, sequence (P14902 whole entry): as above

| IC50 [1] [µM] | IC50 [2] [µM] | Structure (SMILES) |
| --- | --- | --- |
| 0.1 to 1 | 0.1 to 1 | O=C(Nc1nonc1/C(=N/O)Nc1ccc(F)c(Br)c1)Nc1c[nH]c2ccccc12 [Embodiment 37, (Z)-1-(4-(N-(3-bromo-4-fluorophenyl)-N′-hydroxyaminoiminomethyl)-1,2,5-oxadiazole-3-substituted)-3-(1H-indole-3-substituted)urea] |
| > 1 | > 1 | O/N=C(\Nc1ccc(F)c(Br)c1)c1nonc1NC(=S)Nc1ccc(C(F)(F)F)cc1 [Embodiment 119, (Z)-1-(4-(N-(3-bromo-4-fluorophenyl)-N′-hydroxyaminoiminomethyl)-1,2,5-oxadiazole-3-substituted)-3-(4-trifluoromethylphenyl)thiourea] |
| 0.1 to 1 | 0.1 to 1 | N=C(Nc1nonc1/C(=N/O)Nc1ccc(F)c(Br)c1)NC1CCC(N)CC1 (stereo not drawn) [Embodiment 150, (Z)-1-(4-(N-(3-bromo-4-fluorophenyl)-N′-hydroxyaminoiminomethyl)-1,2,5-oxadiazole-3-substituted)-3-(4-aminocyclohexyl)guanidine] |
| 0.1 to 1 | 0.1 to 1 | NCCNC(=O)Nc1nonc1/C(=N/O)Nc1ccc(F)c(Br)c1 [Embodiment 16, (Z)-1-(4-(N-(3-bromo-4-fluorophenyl)-N′-hydroxyaminoiminomethyl)-1,2,5-oxadiazole-3-substituted)-3-(2-aminoethyl)urea] |
| < 0.001 | < 0.001 | NC1CCC(NC(=O)Nc2nonc2/C(=N/O)Nc2ccc(F)c(Cl)c2)CC1 (stereo not drawn) [Embodiment 26] |

Further lines, the compound ahead of its results:

| Structure (SMILES) | IC50 [1] [µM] | IC50 [2] [µM] |
| --- | --- | --- |
| N=C(Nc1conc1/C(=N/O)Nc1ccc(F)c(Cl)c1)NC1CCCCC1 [Embodiment 156, (Z)-1-(4-(N-(3-chloro-4-fluorophenyl)-N′-hydroxyaminoiminomethyl)-isoxazole-3-substituted)-4-cyclohexylguanidine] | 0.1 to 1 | 0.1 to 1 |
| O=C(Nc1nocc1/C(=N/O)Nc1ccc(F)c(Br)c1)NC1CCNCC1 [Embodiment 85, (Z)-1-(4-(N-(3-bromo-4-fluorophenyl)-N′-hydroxyaminoiminomethyl)-isoxazole-3-substituted)-3-(piperidine-4-substituted)urea] | < 0.001 | < 0.001 |
| O=C(Nc1cocc1/C(=N/O)Nc1ccc(F)c(Br)c1)Nc1cccc2[nH]ccc12 [Embodiment 73, (Z)-1-(4-(N-(3-bromo-4-fluorophenyl)-N′-hydroxyaminoiminomethyl)-furan-3-substituted)-3-(4-aminoindole)urea] | 0.1 to 1 | 0.1 to 1 |
| O=C(Nc1conc1/C(=N/O)Nc1ccc(F)c(Br)c1)NC1CC1 [Embodiment 107, (Z)-1-(4-(N-(3-bromo-4-fluorophenyl)-N′-hydroxyaminoiminomethyl)-isoxazole-3-substituted)-4-cyclopropylurea] | > 1 | > 1 |
| NS(=O)(=O)N1CCC(NC(=O)Nc2nonc2/C(=N/O)Nc2ccc(F)c(Br)c2)CC1 [Embodiment 15, (Z)-1-(4-(N-(3-bromo-4-fluorophenyl)-N′-hydroxyaminoiminomethyl)-1,2,5-oxadiazole-3-substituted)-3-(1(aminosulfonyl)piperidine-4-substituted)urea] | < 0.001 | < 0.001 |
| O=C(Nc1ccsc1)Nc1nonc1/C(=N/O)Nc1ccc(F)c(Br)c1 [Embodiment 42, (Z)-1-(4-(N-(3-bromo-4-fluorophenyl)-N′-hydroxyaminoiminomethyl)-1,2,5-oxadiazole-3-substituted)-3-(thiophene-3-substituted)urea] | > 1 | > 1 |
| COc1ccc(NC(=O)Nc2nocc2/C(=N/O)Nc2ccc(F)c(Cl)c2)cc1 [Embodiment 97, (Z)-1-(4-(N-(3-chloro-4-fluorophenyl)-N′-hydroxyaminoiminomethyl)-isoxazole-3-substituted)-3-(4-methoxyphenyl)urea] | 0.1 to 1 | 0.1 to 1 |
